Where two headings read alike, the source gives them in different places.
Experiments:
[1] = cited from earlier work

C=CCN1CC[C@]23c4c5ccc(O)c4O[C@H]2C(=O)CC[C@@]3(O)[C@H]1C5 [naloxone]
Time by which mean plasma naloxone concentration was BLQ (naloxone 1.875 μg/kg IV): ≤ 15 min
Time by which mean plasma naloxone concentration was BLQ (naloxone 15 μg/kg IV): ≤ 120 min
Time of maximum mean plasma naloxone concentration (post-infusion, each treatment): 5 min
oral bioavailability [1]: < 3%
